From the NIST ThermoML archive (doi:10.1016/j.fluid.2010.02.020)
“And” between values parts separate entries of the source, which are not always exact repeats. Equal entries are not always repeated.

Conditions: for mass density: 101.33 kPa, Liquid, Vibrating tube method; for surface tension liquid-gas: Pendant drop shape

CCCCCC[n+]1ccn(C)c1.O=S(=O)([N-]S(=O)(=O)C(F)(F)F)C(F)(F)F
Conditions	mass density [kg/m3]	surface tension liquid-gas [mN/m]
293.15 K	1378.1	–
303.15 K	1368.9	–
313 K	–	29.4
313.15 K	1359.8	–
323.15 K	1350.8	–
333.15 K	1341.8	–
333.2 K	–	28.1
343.15 K	1332.9	–
353.15 K	1324	–
353.4 K	–	27.2
363.15 K	1315.2	–
373.15 K	1306.3	–
373.4 K	–	26.5
383.15 K	1297.4	–
393.15 K	1288.5	–
393.5 K	–	25.6
403.15 K	1279.6	–
413.15 K	1270.6	–
413.3 K	–	24.8
423.15 K	1261.6	–
433.15 K	1252.4	–
433.6 K	–	24.2
443.15 K	1243.2	–
453.15 K	1233.9	–
453.4 K	–	23.6
463.15 K	1224.5	–
473.15 K	1214.9	–
473.4 K	–	21.8
493.2 K	–	20.7
512.7 K	–	19.3
532.4 K	–	18.5

CCCCCCCCn1cc[n+](C)c1.O=S(=O)([N-]S(=O)(=O)C(F)(F)F)C(F)(F)F
Conditions	mass density [kg/m3]	surface tension liquid-gas [mN/m]
293.15 K	1326.5	–
303.15 K	1317.5	–
313 K	–	29.2
313.15 K	1308.6	–
313.2 K	–	28.5
323.15 K	1299.8	–
332.6 K	–	27.4
333.15 K	1291.2	–
333.3 K	–	28.2
343.15 K	1282.5	–
352.8 K	–	26.1
353.15 K	1273.9	–
353.8 K	–	27.3
363.15 K	1265.3	–
372.8 K	–	25.2
373.15 K	1256.7	–
373.6 K	–	26.3
383.15 K	1248.1	–
392.9 K	–	24
393.15 K	1239.5	–
393.6 K	–	25.3
403.15 K	1230.9	–
412.9 K	–	23.1
413.15 K	1222.2	–
413.4 K	–	24.3
423.15 K	1213.5	–
432.8 K	–	22.1
433.15 K	1204.8	–
433.3 K	–	23.2
443.15 K	1195.9	–
452.5 K	–	21.5
453.15 K	1187	–
453.4 K	–	22.1
463.15 K	1178	–
472.4 K	–	19.7
473.15 K	1168.8	–
473.6 K	–	20.7
493 K	–	20.1
512.6 K	–	19.2

CCCC[n+]1ccn(C)c1.O=S(=O)([N-]S(=O)(=O)C(F)(F)F)C(F)(F)F
Conditions	mass density [kg/m3]	surface tension liquid-gas
293.15 K	1442.3	–
303.15 K	1432.8	–
312.6 K	–	31.9 mN/m
313.15 K	1423.4	–
313.3 K	–	31.9 mN/m and 30.4 mN/m
323.15 K	1414.1	–
332.6 K	–	30.8 mN/m
333.1 K	–	31.2 mN/m
333.15 K	1404.8	–
333.5 K	–	29.7 mN/m
343.15 K	1395.6	–
352.6 K	–	30.2 mN/m
353.15 K	1386.3	–
353.6 K	–	28.8 mN/m
353.7 K	–	30.1 mN/m
363.15 K	1377.1	–
372.7 K	–	27.9 mN/m
373.15 K	1367.9	–
373.6 K	–	28.1 mN/m
374.1 K	–	29.2 mN/m
383.15 K	1358.7	–
392.7 K	–	26.2 mN/m
393.15 K	1349.4	–
393.6 K	–	25.9 mN/m
394.2 K	–	28.1 mN/m
403.15 K	1340.1	–
412.5 K	–	26 mN/m
413.15 K	1330.7	–
413.6 K	–	25.6 mN/m
414.4 K	–	27.2 mN/m
423.15 K	1321.2	–
432.5 K	–	25.6 mN/m
432.6 K	–	24.9 mN/m
433.15 K	1311.6	–
434.5 K	–	26.6 mN/m
443.15 K	1301.9	–
452.2 K	–	24.4 mN/m and 24.2 mN/m
453.15 K	1292.1	–
455 K	–	25.8 mN/m
463.15 K	1282.2	–
472 K	–	23.3 mN/m
473 K	–	23.7 mN/m
473.15 K	1272	–
475.2 K	–	24.6 mN/m
